We go through 9 compounds from patent US20240376097A1, “BCL-2 Inhibitor” (BeiGene Ltd., priority 2020, published 2024).

The nature of data set [1]: Metabolic Stability Study, liver microsome incubation (human). The settings on record: human liver microsomes 0.5 mg/mL, 1 μM compound, NADPH; for half-life at 1 μM: NA^# = very stable, beyond the detection limits, read-out: T1/2 (min) Human; for microsomal CLint at 1 μM: read-out: CLint (μL × min^−1 × mg^−1) Human. Type of data set: in vitro ADME. The method, then:
(§1) Biological Example: Metabolic Stability Study
(§2) The metabolic stability of some compounds was evaluated by using the liver microsome incubation system in vitro. Briefly, the test compounds at 1 μM, were incubated with 0.5 mg/mL liver microsomes from different species (human, dog, rat and mouse) with an NADPH regenerating system at 37° C. Samples were quenched at three time points (0, 30, 60 min) with organic solvent containing internal standards, and the supernatant was analyzed for parent loss via LC-MS/MS. Midazolam was used as the positive control to validate the incubation system.
(§3) where Cprotein is the microsomal protein concentration in the incubation system.
(§4) The value of CLint and T1/2 of Example F132b in WO2019210818 and representative compounds of the disclosure were determined, and the results are shown in Table 5.
A general note: Liver microsomes are vesicles of endoplasmic reticulum, rich in cytochrome P450 enzymes.

Data set [2] is described as follows: Metabolic Stability Study, liver microsome incubation (mouse). Type of data set: in vitro ADME. The conditions noted are these: mouse liver microsomes 0.5 mg/mL, 1 μM compound, NADPH; for half-life at 1 μM: NA^# = very stable, beyond the detection limits, read-out: T1/2 (min) mouse; for microsomal CLint at 1 μM: read-out: CLint (μL × min^−1 × mg^−1) mouse. The method, then: as §1, §2, §3, §4

Data set [3] concerns the target recombinant human Bcl-2 D103Y protein (Homo sapiens (Human), UniProt P10415, D103Y). Put plainly: Bcl-2-D103Y Biochemical Assay (TR-FRET). Type of data set: binding. The conditions noted are these: for IC50: TR-FRET, FITC labeled Bak peptide; for Ratio of Bcl-2 D103Y/Bcl-2 WT: ratio of IC50. Put shortly:
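Compounds titrated against the Bcl-2 D103Y–ligand interaction; inhibition derived from the TR-FRET emission ratio 490 nm/520 nm after 337 nm excitation. Four-parameter logistic fitting gave IC50.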
Background: In TR-FRET formats the signal depends on donor and acceptor labels being close together.

In data set [4] the target is Recombinant human Bcl-2 protein (Homo sapiens (Human), UniProt P10415). The experiment in a line: Bcl-2 TR-FRET Assay. Type of data set: binding. Put shortly:
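Displacement of FITC-labelled Bak peptide (0.5 nM) from 0.05 nM human Bcl-2, detected by TR-FRET with Tb-cryptate anti-6His antibody after 1 h at room temperature. Compounds, 10-point series, preincubated 0.5 h with protein in 20 mM potassium phosphate pH 7.5, 50 mM NaCl. IC50s fitted by four-parameter logistic.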

The subject of data set [5] is RS4;11 (BCL-2 dependent acute lymphoblastic leukemia cell line). The experiment in a line: RS4;11 Cell Proliferation Assay. In kind it is cell-based. The conditions noted are these: Homo sapiens, read-out: Cellular proliferation assay (IC50, nM) RS4. Put shortly:
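Viability measured via CellTiter-Glo luminescence after a 48 h, 37 °C exposure to compounds (10 points, highest 1 μM). Seeding was 50,000 RS4;11 cells per well in 10% FBS RPMI-1640; IC50 given as mean.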

Data set [6] deals with BCL-2 G101V knock-in cell line H96 (derive from RS4;11). The experiment in a line: Bcl 2-G101V Knock-In RS4;11 Cell Proliferation Assay. In kind it is cell-based. The conditions noted are these: Homo sapiens, RS4;11 Bcl-2 G101V knock-in clone H96, 48 hrs, CellTiter-GLO, read-out: Cellular proliferation assay (IC50, nM) RS4. Put shortly: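 CellTiter-Glo luminescence after 48 h, 37 °C compound treatment (10 concentrations, maximum 1 μM or 10 μM) gave mean IC50 values. Cells were 50,000 per well of H96, a BCL2-G101V knock-in single clone derived from RS4;11 by Cas9 editing.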
On the technique in general: In ATP-based viability assays light output follows the ATP content of the culture.

Data set [7] deals with recombinant human Bcl-2-G101V protein (Homo sapiens (Human), UniProt P10415, G101V). The experiment in a line: Bcl-2-G101V TR-FRET Assay. Type of data set: binding. The conditions noted are these: Bcl-2 G101V mutant, TR-FRET; read-out: Biochemical assay (IC50, nM) Bcl-2 G101V. Put shortly: (§5)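 Measures how compounds block Bcl-2-G101V engaging its ligand, by TR-FRET with 337 nm excitation and a 490/520 nm emission ratio; dose-response data give IC50 via a four-parameter logistic model.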

Data set [8] has as its system recombinant human Bcl-2-G101V protein. Put plainly: Bcl-2-G101V TR-FRET Assay. In kind it is binding. The settings on record: ratio of biochemical IC50 Bcl-2 G101V / Bcl-2 WT. Put shortly:
as §5

Setting [9] is: wild type Bcl-2, unit inferred, read-out: Bcl-2 WT.
Setting [10] is: Bcl-2 wild type, TR-FRET, read-out: Biochemical assay (IC50, nM) Bcl-2 WT.

Like-named read-outs stand apart in the source and are kept apart here.

As for `COc1ccc(CN2CCN(C3CC4(CCN(c5ccc(C(=O)NS(=O)(=O)c6ccc(NC[C@H]7COCCO7)c([N+](=O)[O-])c6)c(Oc6cnc7[nH]ccc7c6)c5)CC4)C3)[C@H](c3ccccc3C(C)C)C2)cc1` (single isomer, unassigned) [Example 33, N-((4-((((S)-1,4-dioxan-2-yl)methyl)amino)-3-nitrophenyl)sulfonyl)-2-((1H-pyrrolo[2,3-b]pyridin-5-yl)oxy)-4-(2-((R or S)-2-(2-isopropylphenyl)-4-(4-methoxybenzyl)piperazin-1-yl)-7-azaspiro[3.5]nonan-7-yl)benzamide], in data set [1], the half-life at 1 μM stood at 1820 min and the microsomal CLint at 1 μM was found to be 0.8 µL/min/mg. In data set [2], the half-life at 1 μM was 233 min and the microsomal CLint at 1 μM was found to be 5.9 µL/min/mg. For the same compound, in data set [3], the IC50 came to 0.094 nM and the “Ratio of Bcl-2 D103Y/Bcl-2 WT” value was 2.5. Further, in data set [4] (setting [9]), the IC50 stood at 0.038 nM.
Regarding `COc1ccc(CN2CCN(C3CC4(CCN(c5ccc(C(=O)NS(=O)(=O)c6ccc(NC[C@H]7CC[C@](C)(O)CC7)c([N+](=O)[O-])c6)c(Oc6cnc7[nH]ccc7c6)c5)CC4)C3)C(c3ccccc3C(C)C)C2)cc1` (stereo partly drawn) [Example 19, 2-((1H-pyrrolo[2,3-b]pyridin-5-yl)oxy)-N-((4-((((1r,4r)-4-hydroxy-4-methylcyclohexyl)methyl)amino)-3-nitrophenyl)sulfonyl)-4-(2-(2-(2-isopropylphenyl)-4-(4-methoxybenzyl)piperazin-1-yl)-7-azaspiro[3.5]nonan-7-yl)benzamide], the values for the half-life at 1 μM in data set [1] and in data set [2] were 1230 min and 292 min, respectively. For the same compound, the microsomal CLint at 1 μM in data set [1] came out at 1.1 µL/min/mg; in data set [2] it was 4.7 µL/min/mg. In addition, the IC50 in data set [5] (RS4;11 cells) came out at 0.33 nM; in data set [6] (RS4-11, 48 h), 1.9 nM.
Take `COc1cc(CN2CCN(C3CC4(CCN(c5ccc(C(=O)NS(=O)(=O)c6ccc(NC[C@H]7CC[C@](C)(O)CC7)c([N+](=O)[O-])c6)c(Oc6cnc7[nH]ccc7c6)c5)CC4)C3)C(c3ccccc3C(C)C)C2)cc(OC)c1` (stereo partly drawn) [Example 49]: the figures for the half-life at 1 μM in data set [1] and in data set [2] were 93.4 min and 205 min, respectively. Further, the microsomal CLint at 1 μM in data set [1] came out at 14.8 µL/min/mg; in data set [2] it was 6.7 µL/min/mg. In addition, the IC50 in data set [5] (RS4;11 cells) stood at 0.49 nM; in data set [6] (RS4-11, 48 h), 2.4 nM.
With `CC(C)c1ccccc1C1CC(Cc2ccccc2)CCN1C1CC2(CCN(c3ccc(C(=O)NS(=O)(=O)c4ccc(NC[C@H]5CC[C@](C)(O)CC5)c([N+](=O)[O-])c4)c(Oc4cnc5[nH]ccc5c4)c3)CC2)C1` (stereo partly drawn) [Example 67, 2-((1H-pyrrolo[2,3-b]pyridin-5-yl)oxy)-4-(2-(4-benzyl-2-(2-isopropylphenyl)piperidin-1-yl)-7-azaspiro[3.5]nonan-7-yl)-N-((4-((((1r,4r)-4-hydroxy-4-methylcyclohexyl)methyl)amino)-3-nitrophenyl)sulfonyl)benzamide], in data set [1], the half-life at 1 μM is 309 min and the microsomal CLint at 1 μM came to 4.5 µL/min/mg. Moreover, in data set [2], the half-life at 1 μM came out at 272 min and the microsomal CLint at 1 μM was determined as 5.1 µL/min/mg.
Take `COc1cc(CN2CCN(C3CC4(C3)CN(c3ccc(C(=O)NS(=O)(=O)c5ccc(NC[C@H]6CC[C@](C)(O)CC6)c([N+](=O)[O-])c5)c(Oc5cnc6[nH]cc(F)c6c5)c3)C4)[C@H](c3ccccc3C(C)C)C2)ccc1NC(C)C` [Example 360]: the IC50 amounted to 0.31 nM in data set [3]; 0.05 nM in data set [5] (RS4-11, RS4;11 cells); 0.23 nM in data set [4] (setting [10]); 0.23 nM in data set [4] (setting [9]); 0.11 nM in data set [6]; 0.5 nM in data set [7]. In addition, the “Ratio of Bcl-2 D103Y/Bcl-2 WT” value in data set [3] was 1.4. In addition, the “Ratio of Bcl-2 G101V/WT” value in data set [8] stood at 2.2.
Turning to `CC(C)c1ccccc1[C@@H]1CN(Cc2ccc(C3COC3)cc2)CCN1C1CC2(C1)CN(c1ccc(C(=O)NS(=O)(=O)c3ccc(NC[C@H]4CC[C@](C)(O)CC4)c([N+](=O)[O-])c3)c(Oc3cnc4[nH]cc(F)c4c3)c1)C2` [Example 362, 2-((3-fluoro-1H-pyrrolo[2,3-b]pyridin-5-yl)oxy)-N-((4-((((1r,4r)-4-hydroxy-4-methylcyclohexyl)methyl)amino)-3-nitrophenyl)sulfonyl)-4-(6-((R)-2-(2-isopropylphenyl)-4-(4-(oxetan-3-yl)benzyl)piperazin-1-yl)-2-azaspiro[3.3]heptan-2-yl) benzamide], the IC50 was determined as 0.095 nM in data set [3]; 0.08 nM in data set [5] (RS4-11, RS4;11 cells); 0.07 nM in data set [4] (setting [10]); 0.069 nM in data set [4] (setting [9]); 0.17 nM in data set [6]; 0.14 nM in data set [7]. Besides, the “Ratio of Bcl-2 D103Y/Bcl-2 WT” value in data set [3] was determined as 1.4. For the same compound, in data set [8], the “Ratio of Bcl-2 G101V/WT” value is 2.
As to `COc1ccc(CN2CCN(C3CC4(C3)CN(c3ccc(C(=O)NS(=O)(=O)c5ccc(NC[C@H]6CC[C@](C)(O)CC6)c([N+](=O)[O-])c5)c(Oc5cnc6[nH]cc(F)c6c5)c3)C4)[C@H](c3ccccc3C(C)C)C2)cc1OC1CC1` [Example 364, 4-(6-((R)-4-(3-cyclopropoxy-4-methoxybenzyl)-2-(2-isopropylphenyl)piperazin-1-yl)-2-azaspiro[3.3]heptan-2-yl)-2-((3-fluoro-1H-pyrrolo[2,3-b]pyridin-5-yl)oxy)-N-((4-((((1r,4r)-4-hydroxy-4-methylcyclohexyl)methyl)amino)-3-nitrophenyl)sulfonyl) benzamide], the IC50 came out at 0.14 nM in data set [3]; 0.13 nM in data set [5] (RS4-11, RS4;11 cells); 0.14 nM in data set [4] (setting [10]); 0.2 nM in data set [6]; 0.39 nM in data set [7]. The “Ratio of Bcl-2 D103Y/Bcl-2 WT” value in data set [3] was determined as 1.0. The “Ratio of Bcl-2 G101V/WT” value in data set [8] came out at 2.9.
`CC(C)c1ccccc1[C@@H]1CN(Cc2ccc(OC3CC3)cc2)CCN1C1CC2(C1)CN(c1ccc(C(=O)NS(=O)(=O)c3ccc(NC[C@H]4CC[C@](C)(O)CC4)c([N+](=O)[O-])c3)c(Oc3cnc4[nH]cc(F)c4c3)c1)C2` [Example 365]: the IC50 in data set [3] turned out to be 0.51 nM; in data set [5] (RS4-11, RS4;11 cells), 0.12 nM; in data set [4] (setting [10]) it was 0.46 nM; in data set [6], 0.26 nM; in data set [7], 1.3 nM. Moreover, the “Ratio of Bcl-2 D103Y/Bcl-2 WT” value in data set [3] came out at 1.1. In data set [8], the “Ratio of Bcl-2 G101V/WT” value is listed as 2.9.
As for `COc1cc(CN2CCN(C3CC4(C3)CN(c3ccc(C(=O)NS(=O)(=O)c5ccc(NC[C@H]6CC[C@](C)(O)CC6)c([N+](=O)[O-])c5)c(Oc5cnc6[nH]cc(F)c6c5)c3)C4)[C@H](c3ccccc3C(C)C)C2)ccc1C1CCOCC1` [Example 367], the IC50 in data set [3] came to 0.4 nM; in data set [5] (RS4-11, RS4;11 cells), 0.11 nM; in data set [4] (setting [10]), 0.35 nM; in data set [6], 0.3 nM; in data set [7] it was 0.9 nM. Moreover, the “Ratio of Bcl-2 D103Y/Bcl-2 WT” value in data set [3] was found to be 1.2. Also, the “Ratio of Bcl-2 G101V/WT” value in data set [8] worked out at 2.6.
